Measured values: patent US12493040B2, “Cancer detection method using sense of smell of nematode” (HIROTSU BIO SCIENCE INC., priority 2013, dated 2025)

Test system: RNAi-treated eri-1 (mg366) nematodes
Test: RNAi screening of olfactory receptor genes: chemotaxis assay of RNAi-treated nematodes to odorants
Type: in vivo, Caenorhabditis elegans
Conditions: repellent or high concentration of attractant
Method in brief: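 eri-1 (mg366) worms knocked down by feeding RNAi (Ahringer library) on IPTG/ampicillin NGM plates with E. coli for 4 days, then tested for chemotaxis, 30–50 worms per assay. Odorants at 1 μl of 10^−3 or 10^−4 dilution, or 1 and 5 μl undiluted. Hits scored by z score, thresholds ±1.96 (P<0.05) or ±0.96.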

SMILES: CC(=O)C(C)=O [High Da]
- chemotaxis index (Control nematodes): −0.62 ± 0.012
- chemotaxis index (srh-4 RNAi-treated nematodes): −0.81
- chemotaxis index (srh-7 RNAi-treated nematodes): −0.83
- chemotaxis index (srh-8 RNAi-treated nematodes): −0.63
- chemotaxis index (srh-10 RNAi-treated nematodes): 0.20
- chemotaxis index (srh-11 RNAi-treated nematodes): −0.65
- chemotaxis index (srh-15 RNAi-treated nematodes): −0.54
- chemotaxis index (srh-16 RNAi-treated nematodes): −0.65
- chemotaxis index (srh-18 RNAi-treated nematodes): −0.74
- chemotaxis index (srh-19 RNAi-treated nematodes): −0.43
- chemotaxis index (srh-22 RNAi-treated nematodes): −0.74
- chemotaxis index (srh-23 RNAi-treated nematodes): −0.87
- chemotaxis index (srh-24 RNAi-treated nematodes): −0.67
- chemotaxis index (srh-25 RNAi-treated nematodes): −0.22
- chemotaxis index (srh-27 RNAi-treated nematodes): −0.80
- chemotaxis index (srh-28 RNAi-treated nematodes): −0.58
- chemotaxis index (srh-36 RNAi-treated nematodes): −0.46
- chemotaxis index (srh-37 RNAi-treated nematodes): −0.34
- chemotaxis index (srh-39 RNAi-treated nematodes): −0.51
- chemotaxis index (srh-40 RNAi-treated nematodes): −0.46
- chemotaxis index (srh-41 RNAi-treated nematodes): −0.21
- chemotaxis index (srh-44 RNAi-treated nematodes): −0.25
- chemotaxis index (srh-45 RNAi-treated nematodes): −0.47
- chemotaxis index (srh-46 RNAi-treated nematodes): −0.82
- chemotaxis index (srh-48 RNAi-treated nematodes): −0.49
- chemotaxis index (srh-49 RNAi-treated nematodes): −0.62
- chemotaxis index (srh-50 RNAi-treated nematodes): −0.52
- chemotaxis index (srh-51 RNAi-treated nematodes): −0.73
- chemotaxis index (srh-52 RNAi-treated nematodes): −0.78
- chemotaxis index (srh-55 RNAi-treated nematodes): −0.78
- chemotaxis index (srh-59 RNAi-treated nematodes): −0.24
- chemotaxis index (srh-60 RNAi-treated nematodes): −0.64
- chemotaxis index (srh-61 RNAi-treated nematodes): −0.57
- chemotaxis index (srh-67 RNAi-treated nematodes): −0.58
- chemotaxis index (srh-68 RNAi-treated nematodes): −0.49
- chemotaxis index (srh-69 RNAi-treated nematodes): −0.76
- chemotaxis index (srh-70 RNAi-treated nematodes): −0.87
- chemotaxis index (srh-71 RNAi-treated nematodes): −0.38
- chemotaxis index (srh-72 RNAi-treated nematodes): −0.73
- chemotaxis index (srh-74 RNAi-treated nematodes): −0.54
- chemotaxis index (srh-75 RNAi-treated nematodes): −0.42
- chemotaxis index (srh-77 RNAi-treated nematodes): −0.34
- chemotaxis index (srh-79 RNAi-treated nematodes): 0.35
- chemotaxis index (srh-80 RNAi-treated nematodes): −0.48
- chemotaxis index (srh-82 RNAi-treated nematodes): −0.36
- chemotaxis index (srh-83 RNAi-treated nematodes): −0.23
- chemotaxis index (srh-97 RNAi-treated nematodes): −0.42
- chemotaxis index (srh-99 RNAi-treated nematodes): −0.24
- chemotaxis index (srh-100 RNAi-treated nematodes): −0.75
- chemotaxis index (srh-104 RNAi-treated nematodes): −0.39
- chemotaxis index (srh-105 RNAi-treated nematodes): −0.58
- chemotaxis index (srh-109 RNAi-treated nematodes): −0.59
- chemotaxis index (srh-111 RNAi-treated nematodes): −0.35
- chemotaxis index (srh-113 RNAi-treated nematodes): −0.62
- chemotaxis index (srh-115 RNAi-treated nematodes): −0.57
- chemotaxis index (srh-116 RNAi-treated nematodes): −0.36
- chemotaxis index (srh-118 RNAi-treated nematodes): −0.64
- chemotaxis index (srh-119 RNAi-treated nematodes): −0.78
- chemotaxis index (srh-120 RNAi-treated nematodes): −0.66
- chemotaxis index (srh-122 RNAi-treated nematodes): −0.53
- chemotaxis index (srh-123 RNAi-treated nematodes): −0.55
- chemotaxis index (srh-125 RNAi-treated nematodes): −0.59
- chemotaxis index (srh-128 RNAi-treated nematodes): −0.48
- chemotaxis index (srh-129 RNAi-treated nematodes): −0.69
- chemotaxis index (srh-130 RNAi-treated nematodes): −0.37
- chemotaxis index (srh-131 RNAi-treated nematodes): −0.34
- chemotaxis index (srh-132 RNAi-treated nematodes): −0.83
- chemotaxis index (srh-139 RNAi-treated nematodes): −0.42
- chemotaxis index (srh-140 RNAi-treated nematodes): −0.46
- chemotaxis index (srh-141 RNAi-treated nematodes): −0.77
- chemotaxis index (srh-142 RNAi-treated nematodes): −0.49
- chemotaxis index (srh-145 RNAi-treated nematodes): −0.85
- chemotaxis index (srh-148 RNAi-treated nematodes): −0.69
- chemotaxis index (srh-154 RNAi-treated nematodes): −0.65
- chemotaxis index (srh-159 RNAi-treated nematodes): −0.45
- chemotaxis index (srh-165 RNAi-treated nematodes): −0.79
- chemotaxis index (srh-166 RNAi-treated nematodes): −0.83
- chemotaxis index (srh-167 RNAi-treated nematodes): −0.89
- chemotaxis index (srh-169 RNAi-treated nematodes): −0.92
- chemotaxis index (srh-174 RNAi-treated nematodes): −0.69
- chemotaxis index (srh-179 RNAi-treated nematodes): −0.87
- chemotaxis index (srh-182 RNAi-treated nematodes): −0.86
- chemotaxis index (srh-186 RNAi-treated nematodes): −0.80
- chemotaxis index (srh-190 RNAi-treated nematodes): −0.91
- chemotaxis index (srh-193 RNAi-treated nematodes): −0.53
- chemotaxis index (srh-195 RNAi-treated nematodes): −0.80
- chemotaxis index (srh-201 RNAi-treated nematodes): −0.95
- chemotaxis index (srh-203 RNAi-treated nematodes): −0.94
- chemotaxis index (srh-204 RNAi-treated nematodes): −0.89
- chemotaxis index (srh-206 RNAi-treated nematodes): −0.79
- chemotaxis index (srh-207 RNAi-treated nematodes): −0.87
- chemotaxis index (srh-208 RNAi-treated nematodes): −0.76
- chemotaxis index (srh-209 RNAi-treated nematodes): −0.70
- chemotaxis index (srh-210 RNAi-treated nematodes): −0.56
- chemotaxis index (srh-214 RNAi-treated nematodes): −0.60
- chemotaxis index (srh-216 RNAi-treated nematodes): −0.61
- chemotaxis index (srh-217 RNAi-treated nematodes): −0.50
- chemotaxis index (srh-220 RNAi-treated nematodes): −0.42
- chemotaxis index (srh-222 RNAi-treated nematodes): −0.66
- chemotaxis index (srh-223 RNAi-treated nematodes): −0.50
